From article PMC9011347, “Small-Molecule Inhibitors Targeting Lipolysis in Human Adipocytes” (Journal of the American Chemical Society, 2022)

Target: T1, PNPLA1 (Homo sapiens, UniProt Q8N8W4)
T1 construct: expressed in transfected cells; host or cells: HEK293T cells
Assay: PNPLA1-dependent ω-O-acylceramide formation in HEK293T cells
Type: cell-based
Conditions: NG-497 40 µM, Orlistat 40 µM
Experimental: Fig. S3: Investigation of off-target effects of NG-497 on structurally and functionally related lipid hydrolases. (a) PNPLA1-dependent formation of acylceramides was monitored in a cell-based assay in HEK293T cells. Experiments were performed in the presence or absence of NG-497 (40 µM) and the non-selective lipase inhibitor Orlistat (40 µM). Orlistat, but not NG-497, inhibited PNPLA1/CGI-58-dependent ω-O-acylceramide formation. (b-h) Enzymes were overexpressed in Expi293 cells and cell lysates were used as source of enzymatic activity. […] Experiments were performed in the presence or absence of NG-497 (100 µM) and the formation of reaction products was monitored. […]
Data were calculated relative to the basal activity detected in LacZ-transfected controls. […]
LPL activity was inhibited using an anti-LPL antibody. All data are presented as mean ± S.D. Statistical significance was determined via ANOVA followed by Bonferroni post hoc test ( ***, p < 0.001). […]
Released free fatty acids were quantified via NEFA C kit (Fujifilm Wako Chemicals, Neuss, Germany) and release of p-nitrophenol was measured at 405 nm. […] Cellular ω-O-acylceramide formation was monitored using [1-14C]linoleic acid as tracer. […] The activity of purified human pancreatic lipase (MilliporeSigma #SRE0028) was determined as previously described7 in the presence or absence of NG-497 (100µM) or Orlistat (20 µM). […]

T1 sequence (Q8N8W4 whole entry): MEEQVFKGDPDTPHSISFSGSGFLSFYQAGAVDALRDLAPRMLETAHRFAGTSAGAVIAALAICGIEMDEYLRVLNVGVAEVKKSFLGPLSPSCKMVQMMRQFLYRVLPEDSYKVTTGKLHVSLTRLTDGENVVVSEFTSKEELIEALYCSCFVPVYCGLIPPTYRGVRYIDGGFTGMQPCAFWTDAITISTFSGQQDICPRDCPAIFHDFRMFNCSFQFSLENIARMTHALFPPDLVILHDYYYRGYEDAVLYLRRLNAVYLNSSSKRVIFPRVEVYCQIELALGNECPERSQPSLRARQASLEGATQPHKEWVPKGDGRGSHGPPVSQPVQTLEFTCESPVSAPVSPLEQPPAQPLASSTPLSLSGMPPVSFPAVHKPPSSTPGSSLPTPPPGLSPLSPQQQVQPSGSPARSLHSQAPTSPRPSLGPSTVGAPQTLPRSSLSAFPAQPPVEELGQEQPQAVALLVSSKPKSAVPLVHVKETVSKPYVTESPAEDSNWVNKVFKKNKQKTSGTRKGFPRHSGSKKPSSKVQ

In the case of `CCOc1ccc(-c2cc(OC)cc(C(=O)OC(C)C)n2)cc1` [NG-497], the “PNPLA1/CGI-58-dependent ω-O-acylceramide formation” value is reported as “not affected”.
